{
  "source": "patent US20250171431A1",
  "about": "“HETEROCYCLIC INHIBITORS OF IGF-1R FOR TREATMENT OF DISEASE” (HORIZON THERAPEUTICS IRELAND DAC, priority 2023, published 2025)",
  "data": [
    {"target": "IGF-1R (Homo sapiens (Human), UniProt P08069)", "sequence (P08069 31-1367)": "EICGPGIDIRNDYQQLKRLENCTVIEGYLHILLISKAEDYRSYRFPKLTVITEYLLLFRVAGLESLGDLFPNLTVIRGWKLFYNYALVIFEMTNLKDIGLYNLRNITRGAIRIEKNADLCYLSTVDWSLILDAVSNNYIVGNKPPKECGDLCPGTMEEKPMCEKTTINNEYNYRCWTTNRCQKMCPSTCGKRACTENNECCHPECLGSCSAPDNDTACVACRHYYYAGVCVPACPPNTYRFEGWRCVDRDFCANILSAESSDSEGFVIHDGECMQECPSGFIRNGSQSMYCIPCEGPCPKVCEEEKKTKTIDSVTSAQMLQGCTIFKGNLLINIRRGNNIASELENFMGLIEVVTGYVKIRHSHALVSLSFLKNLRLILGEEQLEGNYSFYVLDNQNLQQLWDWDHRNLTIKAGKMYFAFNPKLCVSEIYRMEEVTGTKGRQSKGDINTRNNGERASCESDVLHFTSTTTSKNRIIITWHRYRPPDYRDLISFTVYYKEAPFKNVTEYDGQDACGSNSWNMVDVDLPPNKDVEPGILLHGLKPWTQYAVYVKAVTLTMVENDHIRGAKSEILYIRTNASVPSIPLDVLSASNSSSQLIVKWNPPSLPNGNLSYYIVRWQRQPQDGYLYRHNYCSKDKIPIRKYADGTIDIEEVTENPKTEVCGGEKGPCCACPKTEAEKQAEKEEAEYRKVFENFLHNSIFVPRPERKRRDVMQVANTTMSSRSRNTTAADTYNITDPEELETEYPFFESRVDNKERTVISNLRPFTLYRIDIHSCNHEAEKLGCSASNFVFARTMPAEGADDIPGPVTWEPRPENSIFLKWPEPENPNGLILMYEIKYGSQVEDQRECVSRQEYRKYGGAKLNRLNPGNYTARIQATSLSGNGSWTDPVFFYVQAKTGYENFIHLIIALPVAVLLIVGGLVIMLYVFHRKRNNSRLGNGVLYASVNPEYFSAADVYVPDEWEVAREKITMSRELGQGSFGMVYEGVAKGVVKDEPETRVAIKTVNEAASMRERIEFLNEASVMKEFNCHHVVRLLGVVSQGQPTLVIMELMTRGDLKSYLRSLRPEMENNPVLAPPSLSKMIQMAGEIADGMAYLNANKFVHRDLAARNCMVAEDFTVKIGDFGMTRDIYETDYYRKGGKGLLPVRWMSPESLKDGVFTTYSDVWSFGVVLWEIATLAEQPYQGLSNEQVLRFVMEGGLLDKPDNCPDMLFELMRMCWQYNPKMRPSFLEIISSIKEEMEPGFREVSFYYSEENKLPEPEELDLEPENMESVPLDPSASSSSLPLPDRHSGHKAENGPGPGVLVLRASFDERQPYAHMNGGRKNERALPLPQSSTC", "experiment": "Example B-1: IGF-1R Assay (PC3 cells, IGF1 stimulation, AlphaLISA)", "assay_type": "cell-based", "settings": "200 ng/mL IGF1 stimulation, read-out: Biological Activity against IGF-1R IC50", "method_in_brief": "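Readout is AlphaLISA signal from lysed PC3 cells, expressed as % inhibition versus vehicle and EC80 controls and banded by IC50. Before lysis, the cells were starved of serum for 2 h, exposed to 3× serially diluted compound for 2 h, and stimulated for 30 min with 200 ng/mL IGF1 (final).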", "units": {"IC50": "nM"}, "values": [
      {"smiles": "c1ccc2ncc(Nc3ccnc(Nc4ccc(OCCCN5CCCCC5)c(OCC5CCCO5)c4)n3)cc2c1", "note": "(centres unmarked) [Compound 402, 2-{4-(3-piperidinopropoxy)-3-[(tetrahydro-2-furyl)methoxy]phenylamino}-4-(3-quinolylamino)pyrimidine]", "IC50": "≤ 500"},
      {"smiles": "Fc1ccc2cc(Nc3ccnc(Nc4ccc(OCCCN5CCOCC5)cc4)n3)cnc2c1F", "note": "[Compound 403, 4-(7,8-difluoro-3-quinolylamino)-2-[p-(3-morpholinopropoxy)phenylamino]pyrimidine]", "IC50": "2000 to 10000"},
      {"smiles": "FC(F)(F)Oc1cccc2cc(Nc3ccnc(Nc4ccc(OCCCN5CCOCC5)cc4)n3)cnc12", "note": "[Compound 404, 2-[p-(3-morpholinopropoxy)phenylamino]-4-(8-trifluoromethoxy-3-quinolylamino)pyrimidine]", "IC50": "2000 to 10000"},
      {"smiles": "c1cc(Nc2cnc3cc(C4CC4)ccc3c2)nc(Nc2ccc(OCCCN3CCOCC3)cc2)n1", "note": "[Compound 405, 4-(7-cyclopropyl-3-quinolylamino)-2-[p-(3-morpholinopropoxy)phenylamino]pyrimidine]", "IC50": "2000 to 10000"},
      {"smiles": "COc1ccc2cc(Nc3ccnc(Nc4ccc(OCCCN5CCOCC5)cc4)n3)cnc2c1", "note": "[Compound 406, 4-(7-methoxy-3-quinolylamino)-2-[p-(3-morpholinopropoxy)phenylamino]pyrimidine]", "IC50": "2000 to 10000"},
      {"smiles": "Cc1ccc2cc(Nc3ccnc(Nc4ccc(OCCCN5CCOCC5)cc4)n3)cnc2c1", "note": "[Compound 407, 4-(7-methyl-3-quinolylamino)-2-[p-(3-morpholinopropoxy)phenylamino]pyrimidine]", "IC50": "500 to 2000"},
      {"smiles": "Oc1ccc2cc(Nc3ccnc(Nc4ccc(OCCCN5CCOCC5)cc4)n3)cnc2c1", "note": "[Compound 408, 3-{2-[p-(3-morpholinopropoxy)phenylamino]-4-pyrimidinylamino}-7-quinolinol]", "IC50": "≤ 500"},
      {"smiles": "Brc1ccc2cc(Nc3ccnc(Nc4ccc(OCCCN5CCOCC5)cc4)n3)cnc2c1", "note": "[Compound 409, 4-(7-bromo-3-quinolylamino)-2-[p-(3-morpholinopropoxy)phenylamino]pyrimidine]", "IC50": "2000 to 10000"},
      {"smiles": "Clc1ccc2cc(Nc3ccnc(Nc4ccc(OCCCN5CCOCC5)cc4)n3)cnc2c1", "note": "[Compound 410, 4-(7-chloro-3-quinolylamino)-2-[p-(3-morpholinopropoxy)phenylamino]pyrimidine]", "IC50": "2000 to 10000"},
      {"smiles": "CS(=O)(=O)c1ccc2ncc(Nc3ccnc(Nc4ccc(OCCCN5CCOCC5)cc4)n3)cc2c1", "note": "[Compound 411, 4-(6-mesyl-3-quinolylamino)-2-[p-(3-morpholinopropoxy)phenylamino]pyrimidine]", "IC50": "2000 to 10000"},
      {"smiles": "COc1cc(Nc2nccc(Nc3cnc4c(Cl)cccc4c3)n2)ccc1OCCCN1CCOCC1", "note": "[Compound 413, 4-(8-chloro-3-quinolylamino)-2-[3-methoxy-4-(3-morpholinopropoxy)phenylamino]pyrimidine]", "IC50": "≤ 500"},
      {"smiles": "Oc1ccc2ncc(Nc3ccnc(Nc4ccc(OCCCN5CCOCC5)cc4)n3)cc2c1", "note": "[Compound 414, 3-{2-[p-(3-morpholinopropoxy)phenylamino]-4-pyrimidinylamino}-6-quinolinol]", "IC50": "≤ 500"},
      {"smiles": "FC(F)(F)c1cccc2cc(Nc3ccnc(Nc4ccc(OCCCN5CCOCC5)cc4)n3)cnc12", "note": "[Compound 415, 2-[p-(3-morpholinopropoxy)phenylamino]-4-[8-(trifluoromethyl)-3-quinolylamino]pyrimidine]", "IC50": "2000 to 10000"},
      {"smiles": "Clc1cccc2cc(Nc3ccnc(Nc4ccc(OCCCN5CCOCC5)cc4)n3)cnc12", "note": "[Compound 416, 4-(8-chloro-3-quinolylamino)-2-[p-(3-morpholinopropoxy)phenylamino]pyrimidine]", "IC50": "≤ 500"},
      {"smiles": "COc1cccc2cc(Nc3ccnc(Nc4ccc(OCCCN5CCOCC5)cc4)n3)cnc12", "note": "[Compound 417, 4-(8-methoxy-3-quinolylamino)-2-[p-(3-morpholinopropoxy)phenylamino]pyrimidine]", "IC50": "500 to 2000"},
      {"smiles": "c1ccc2ncc(Nc3ccnc(Nc4ccc(OCCCN5CCCCC5)c(OCC5CCOCC5)c4)n3)cc2c1", "note": "[Compound 418]", "IC50": "≤ 500"},
      {"smiles": "COc1cc(Nc2nccc(Nc3cnc4ccc(C(F)(F)F)cc4c3)n2)ccc1OCCCN1CCOCC1", "note": "[Compound 419, 2-[3-methoxy-4-(3-morpholinopropoxy)phenylamino]-4-[6-(trifluoromethyl)-3-quinolylamino]pyrimidine]", "IC50": "≤ 500"},
      {"smiles": "COc1cc(Nc2nccc(Nc3cnc4ccc(Br)cc4c3)n2)ccc1OCCCN1CCCCC1", "note": "[Compound 421, 4-(6-bromo-3-quinolylamino)-2-[3-methoxy-4-(3-piperidinopropoxy)phenylamino]pyrimidine]", "IC50": "≤ 500"},
      {"smiles": "COc1cc(Nc2nccc(Nc3cnc4cccc(Cl)c4c3)n2)ccc1OCCCN1CCCCC1", "note": "[Compound 422, 4-(5-chloro-3-quinolylamino)-2-[3-methoxy-4-(3-piperidinopropoxy)phenylamino]pyrimidine]", "IC50": "≤ 500"},
      {"smiles": "COc1cc(Nc2nccc(Nc3cnc4cccc(F)c4c3)n2)ccc1OCCCN1CCCCC1", "note": "[Compound 423, 4-(5-fluoro-3-quinolylamino)-2-[3-methoxy-4-(3-piperidinopropoxy)phenylamino]pyrimidine]", "IC50": "≤ 500"},
      {"smiles": "COc1cc(Nc2nccc(Nc3cc4ccccc4nc3C)n2)ccc1OCCCN1CCCCC1", "note": "[Compound 424, 2-[3-methoxy-4-(3-piperidinopropoxy)phenylamino]-4-(2-methyl-3-quinolylamino)pyrimidine]", "IC50": "500 to 2000"},
      {"smiles": "c1ccc2ncc(Nc3ccnc(Nc4ccc(OCCCN5CCCCC5)c(OCC5CC5)c4)n3)cc2c1", "note": "[Compound 425, 2-[3-(cyclopropylmethoxy)-4-(3-piperidinopropoxy)phenylamino]-4-(3-quinolylamino)pyrimidine]", "IC50": "≤ 500"},
      {"smiles": "COc1ccc2cc(Nc3ccnc(Nc4ccc(OCCCN5CCCCC5)c(OC)c4)n3)cnc2c1", "note": "[Compound 426, 2-[3-methoxy-4-(3-piperidinopropoxy)phenylamino]-4-(7-methoxy-3-quinolylamino)pyrimidine]", "IC50": "≤ 500"},
      {"smiles": "COc1cc(Nc2nccc(Nc3cnc4ccc(F)cc4c3)n2)ccc1OCCCN1CCCCC1", "note": "[Compound 427, 4-(6-fluoro-3-quinolylamino)-2-[3-methoxy-4-(3-piperidinopropoxy)phenylamino]pyrimidine]", "IC50": "≤ 500"},
      {"smiles": "COc1cc(Nc2nccc(Nc3cnc4ccc(C)cc4c3)n2)ccc1OCCCN1CCCCC1", "note": "[Compound 429, 2-[3-methoxy-4-(3-piperidinopropoxy)phenylamino]-4-(6-methyl-3-quinolylamino)pyrimidine]", "IC50": "≤ 500"},
      {"smiles": "COc1cc(Nc2nccc(Nc3cnc4c(Cl)cccc4c3)n2)ccc1OCCCN1CCCCC1", "note": "[Compound 430, 4-(8-chloro-3-quinolylamino)-2-[3-methoxy-4-(3-piperidinopropoxy)phenylamino]pyrimidine]", "IC50": "≤ 500"},
      {"smiles": "COc1cc(Nc2ncc(F)c(Nc3cnc4ccccc4c3)n2)ccc1OCCCN1CCCCC1", "note": "[Compound 431, 5-fluoro-2-[3-methoxy-4-(3-piperidinopropoxy)phenylamino]-4-(3-quinolylamino)pyrimidine]", "IC50": "≤ 500"},
      {"smiles": "Fc1cnc(Nc2ccc(OCCCN3CCCCC3)cc2)nc1Nc1cnc2ccccc2c1", "note": "[Compound 432, 5-fluoro-2-[p-(3-piperidinopropoxy)phenylamino]-4-(3-quinolylamino)pyrimidine]", "IC50": "≤ 500"},
      {"smiles": "COc1cc(Nc2nccc(Nc3ccc4cccnc4c3)n2)ccc1OCCCN1CCCCC1", "note": "[Compound 433, 2-[3-methoxy-4-(3-piperidinopropoxy)phenylamino]-4-(7-quinolylamino) pyrimidine]", "IC50": "500 to 2000"},
      {"smiles": "COc1cc(Nc2nccc(Nc3ccc4scnc4c3)n2)ccc1OCCCN1CCCCC1", "note": "[Compound 443, 4-(1,3-benzothiazol-5-ylamino)-2-[3-methoxy-4-(3-piperidinopropoxy)phenylamino] pyrimidine]", "IC50": "≤ 500"},
      {"smiles": "COc1ccc2cc(Nc3ccnc(Nc4ccc(OCCCN5CCCCC5)c(OC)c4)n3)ccc2c1", "note": "[Compound 444, 4-(6-methoxy-2-naphthylamino)-2-[3-methoxy-4-(3-piperidinopropoxy)phenylamino] pyrimidine]", "IC50": "≤ 500"},
      {"smiles": "COc1cc(Nc2nccc(Nc3cc(F)c4ncccc4c3)n2)ccc1OCCCN1CCCCC1", "note": "[Compound 447, 4-(8-fluoro-6-quinolylamino)-2-[3-methoxy-4-(3-piperidinopropoxy)phenylamino] pyrimidine]", "IC50": "≤ 500"},
      {"smiles": "COc1cc(Nc2nccc(Nc3ccc4c(c3)CCC(=O)N4)n2)ccc1OCCCN1CCCCC1", "note": "[Compound 448, 6-{2-[3-methoxy-4-(3-piperidinopropoxy)phenylamino]-4-pyrimidinylamino}-3,4-dihydro-2(1H)-quinolinone]", "IC50": "≤ 500"},
      {"smiles": "COc1cc(Nc2nccc(Nc3ccc4c(c3)CCCC4=O)n2)ccc1OCCCN1CCCCC1", "note": "[Compound 449, 6-{2-[3-methoxy-4-(3-piperidinopropoxy)phenylamino]-4-pyrimidinylamino}-3,4-dihydro-1(2H)-naphthalenone]", "IC50": "≤ 500"},
      {"smiles": "COc1cc(Nc2nccc(Nc3ccc4c(c3)CCN(C)C4)n2)ccc1OCCCN1CCCCC1", "note": "[Compound 450, 2-[3-methoxy-4-(3-piperidinopropoxy)phenylamino]-4-(2-methyl-1,2,3,4-tetrahydro-6-isoquinolylamino) pyrimidine]", "IC50": "500 to 2000"},
      {"smiles": "COc1cc(Nc2nccc(Nc3ccc4c(c3)CCCN4C)n2)ccc1OCCCN1CCCCC1", "note": "[Compound 451, 2-[3-methoxy-4-(3-piperidinopropoxy)phenylamino]-4-(1-methyl-1,2,3,4-tetrahydro-6-quinolylamino) pyrimidine]", "IC50": "≤ 500"},
      {"smiles": "COc1ccc2ccc(Nc3ccnc(Nc4ccc(OCCCN5CCCCC5)c(OC)c4)n3)cc2c1", "note": "[Compound 452, 4-(7-methoxy-2-naphthylamino)-2-[3-methoxy-4-(3-piperidinopropoxy)phenylamino] pyrimidine]", "IC50": "≤ 500"},
      {"smiles": "COc1cc(Nc2nccc(Nc3ccc4c(OC)cccc4c3)n2)ccc1OCCCN1CCCCC1", "note": "[Compound 453, 4-(5-methoxy-2-naphthylamino)-2-[3-methoxy-4-(3-piperidinopropoxy)phenylamino] pyrimidine]", "IC50": "≤ 500"}
    ]}
  ]
}
